# pIC50: −log10 of the molar value.
# Target: human Nav1.8 (Homo sapiens (Human), UniProt Q9Y5Y9)
# Test: Nav1.8 Qube automated patch-clamp assay
# Type: cell-based
# Conditions: Nav1.8 Qube Assay; human Nav1.8 channels stably expressed in HEK 293 cells
# Method in brief: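 IC50 values came from Hill fitting of peak currents: pulse 1 for resting-state and pulse 10 for inactivated-state inhibition. Currents were recorded in stably transfected HEK293 cells at room temperature, with ten 20 ms steps to 10 mV at 1 Hz from a −90 mV hold. External solution was 150 mM NaCl-based; internal solution was CsF/CsCl.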
# human Nav1.8, sequence (Q9Y5Y9 whole entry): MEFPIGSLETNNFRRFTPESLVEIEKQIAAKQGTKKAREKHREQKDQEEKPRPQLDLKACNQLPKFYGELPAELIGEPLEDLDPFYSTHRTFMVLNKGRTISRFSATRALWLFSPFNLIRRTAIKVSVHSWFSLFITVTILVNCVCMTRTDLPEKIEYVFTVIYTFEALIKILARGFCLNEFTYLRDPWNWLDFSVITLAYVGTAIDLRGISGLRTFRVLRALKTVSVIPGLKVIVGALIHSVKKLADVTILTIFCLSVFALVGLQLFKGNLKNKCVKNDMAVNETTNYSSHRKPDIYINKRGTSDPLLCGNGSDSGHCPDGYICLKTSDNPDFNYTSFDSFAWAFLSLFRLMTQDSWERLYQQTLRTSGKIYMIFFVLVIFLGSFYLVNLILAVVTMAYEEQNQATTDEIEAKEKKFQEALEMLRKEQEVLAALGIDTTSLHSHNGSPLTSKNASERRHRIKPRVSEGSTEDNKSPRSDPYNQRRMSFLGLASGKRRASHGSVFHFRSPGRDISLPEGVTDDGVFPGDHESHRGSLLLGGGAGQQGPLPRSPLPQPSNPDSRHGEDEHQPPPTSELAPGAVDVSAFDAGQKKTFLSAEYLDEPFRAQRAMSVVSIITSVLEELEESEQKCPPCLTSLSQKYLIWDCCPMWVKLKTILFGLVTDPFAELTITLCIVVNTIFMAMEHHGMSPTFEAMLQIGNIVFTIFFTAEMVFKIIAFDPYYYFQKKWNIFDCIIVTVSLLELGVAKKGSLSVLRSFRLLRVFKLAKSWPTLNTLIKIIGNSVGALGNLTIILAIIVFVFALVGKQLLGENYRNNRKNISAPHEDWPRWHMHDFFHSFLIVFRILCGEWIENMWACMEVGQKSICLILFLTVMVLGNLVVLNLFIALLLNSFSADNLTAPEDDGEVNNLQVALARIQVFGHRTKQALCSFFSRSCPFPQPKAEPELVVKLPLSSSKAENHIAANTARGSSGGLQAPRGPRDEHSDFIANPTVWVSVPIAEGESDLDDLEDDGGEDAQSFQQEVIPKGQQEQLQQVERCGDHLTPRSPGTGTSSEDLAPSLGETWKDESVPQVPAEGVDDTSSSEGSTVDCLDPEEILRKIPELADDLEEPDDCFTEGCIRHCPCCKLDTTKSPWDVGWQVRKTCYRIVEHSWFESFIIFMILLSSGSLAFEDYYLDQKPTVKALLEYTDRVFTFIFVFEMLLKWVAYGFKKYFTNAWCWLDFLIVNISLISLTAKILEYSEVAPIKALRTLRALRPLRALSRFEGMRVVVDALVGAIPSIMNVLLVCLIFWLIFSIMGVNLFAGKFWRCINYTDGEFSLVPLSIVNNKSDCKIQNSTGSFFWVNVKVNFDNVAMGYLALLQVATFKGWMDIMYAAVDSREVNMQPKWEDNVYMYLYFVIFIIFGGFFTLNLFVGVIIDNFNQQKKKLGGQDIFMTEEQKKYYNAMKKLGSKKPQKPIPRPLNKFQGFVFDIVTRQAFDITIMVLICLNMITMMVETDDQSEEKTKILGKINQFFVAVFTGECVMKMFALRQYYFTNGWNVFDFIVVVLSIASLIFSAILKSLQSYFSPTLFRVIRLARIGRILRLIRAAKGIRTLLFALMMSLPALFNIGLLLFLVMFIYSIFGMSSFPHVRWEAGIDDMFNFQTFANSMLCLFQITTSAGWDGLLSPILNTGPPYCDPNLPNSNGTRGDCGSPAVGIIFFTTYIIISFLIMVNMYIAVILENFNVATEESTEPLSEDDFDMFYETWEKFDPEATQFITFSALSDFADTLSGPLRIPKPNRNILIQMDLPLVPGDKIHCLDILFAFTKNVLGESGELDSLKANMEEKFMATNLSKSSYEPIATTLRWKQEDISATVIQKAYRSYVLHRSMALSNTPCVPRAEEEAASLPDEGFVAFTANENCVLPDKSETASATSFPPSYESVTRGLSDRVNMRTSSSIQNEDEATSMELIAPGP
row,pIC50,SMILES
1,6.26,"NS(=O)(=O)c1cccc(NC(=O)c2cc(C(F)(F)F)cnc2N2CCO[C@@H](C(F)(F)F)C2)c1 [Example 141, N-(3-sulfamoylphenyl)-5-(trifluoromethyl)-2-[(2R)-2-(trifluoro-methyl)morpholin-4-yl]pyridine-3-carboxamide]"
2,7.14,"CC1CN(c2ncc(C(F)(F)F)cc2C(=O)Nc2ccc3c(c2)S(=O)(=O)NC3)CCC1(F)F (single isomer, unassigned) [Example 113, 2-[(3S or 3R)-4,4-difluoro-3-methyl-1-piperidyl]-N-(1,1-dioxo-2,3-dihydro-1,2-benzothiazol-6-yl)-5-(trifluoromethyl) pyridine-3-carboxamide]"
3,7.14,"NC(=O)c1cccc(NC(=O)c2cc(C(F)(F)F)cnc2N2CCCCCCC2)c1 [Example 107, 2-(azocan-1-yl)-N-(3-carbamoylphenyl)-5-(trifluoromethyl)-pyridine-3-carboxamide]"
4,6.55,"NC(=O)c1cccc(NC(=O)c2cc(Br)cnc2N2CCCCCC2)c1 [Example 38, 2-(azepan-1-yl)-5-bromo-N-(3-carbamoyl-phenyl)pyridine-3-carboxamide]"
5,7.27,"Cc1nc(N2CCCCCC2)c(C(=O)Nc2cccc(C(N)=O)c2)cc1C#N [Example 178, 2-(azepan-1-yl)-N-(3-carbamoylphenyl)-5-cyano-6-methyl-pyridine-3-carboxamide]"
6,5.94,"C[C@@H]1CN(c2ncc(C(F)(F)F)cc2C(=O)Nc2cccc(S(N)(=O)=O)c2)C[C@H](C(F)(F)F)O1 [Example 142, 2-[(2R,6R)-2-methyl-6-(trifluoromethyl)morpholin-4-yl]-N-(3-sulfamoylphenyl)-5-(trifluoromethyl)-pyridine-3-carboxamide]"
7,7.36,"NS(=O)(=O)c1cccc(NC(=O)c2c(Br)ccnc2N2CCCCCC2)c1 [Example 33, 2-(azepan-1-yl)-4-bromo-N-(3-sulfamoyl-phenyl)pyridine-3-carboxamide]"
8,6.16,"NS(=O)(=O)c1cccc(NC(=O)c2cc(C(F)(F)F)cnc2N2CC3CCCC32)c1 (centres unmarked) [Example 59, 2-(6-azabicyclo[3.2.0]heptan-6-yl)-N-(3-sulfamoyl-phenyl)-5-(trifluoro-methyl)pyridine-3-carboxamide]"
9,7.55,"Cc1nc(N2CCCC(F)(F)CC2)c(C(=O)Nc2cccc(C(N)=O)c2)cc1C#N [Example 177, N-(3-carbamoylphenyl)-5-cyano-2-(4,4-difluoroazepan-1-yl)-6-methyl-pyridine-3-carboxamide]"
10,8.00,"Cc1nc(N2CCCCCC2)c(C(=O)Nc2cccc(S(N)(=O)=O)c2)cc1C#N [Example 157, 2-(azepan-1-yl)-5-cyano-6-methyl-N-(3-sulfamoylphenyl)-pyridine-3-carboxamide]"
11,6.72,"O=C(Nc1ccc2c(c1)S(=O)(=O)NC2)c1cc(C(F)(F)F)cnc1N1CCCCCC1 [Example 121, 2-(azepan-1-yl)-N-(1,1-dioxo-2,3-dihydro-1,2-benzothiazol-6-yl)-5-(trifluoromethyl)-pyridine-3-carboxamide]"
12,7.68,"NS(=O)(=O)c1cccc(NC(=O)c2cc(C(F)(F)F)cnc2N2C[C@@H]3[C@H](C2)C(F)(F)C3(F)F)c1 [Example 133, N-(3-sulfamoylphenyl)-2-[(1R,5S)-6,6,7,7-tetrafluoro-3-azabicyclo-[3.2.0]heptan-3-yl]-5-(trifluoromethyl)-pyridine-3-carboxamide]"
13,5.58,"COC1CCN(c2ncc(C(F)(F)F)cc2C(=O)Nc2cccc(S(N)(=O)=O)c2)CC1 [Example 66, 2-(4-methoxy-1-piperidyl)-N-(3-sulfamoylphenyl)-5-(trifluoromethyl) pyridine-3-carboxamide]"
14,6.54,"NS(=O)(=O)c1cccc(NC(=O)c2ccc(C(F)(F)F)nc2N2CCCCC2)c1 [Example 77, 2-(1-piperidyl)-N-(3-sulfamoylphenyl)-6-(trifluoromethyl) pyridine-3-carboxamide]"
15,6.30,"NS(=O)(=O)c1cccc(NC(=O)c2cc(C(F)(F)F)cnc2N2CCCO[C@@H](C(F)(F)F)C2)c1 [Example 144, (R)—N-(3-sulfamoylphenyl)-5-(trifluoromethyl)-2-(2-(trifluoromethyl)-1,4-oxazepan-4-yl) nicotinamide]"
16,7.49,"NS(=O)(=O)c1cccc(NC(=O)c2cc(C(F)(F)F)cnc2N2CCCO[C@H](C(F)(F)F)C2)c1 [Example 147, N-(3-sulfamoylphenyl)-5-(trifluoromethyl)-2-[(2S)-2-(trifluoro-methyl)-1,4-oxazepan-4-yl]pyridine-3-carboxamide]"
17,7.38,"COc1nc(N2CCCCCC2)c(C(=O)Nc2cccc(S(N)(=O)=O)c2)cc1C(F)(F)F [Example 169, 2-(azepan-1-yl)-6-methoxy-N-(3-sulfamoylphenyl)-5-(trifluoromethyl)nicotinamide]"

row,pIC50,SMILES
1,8.22,"Cc1c(Cl)nc(N2CCCCCC2)c(C(=O)Nc2cccc(S(N)(=O)=O)c2)c1C [Example 174, 2-(azepan-1-yl)-6-chloro-4,5-dimethyl-N-(3-sulfamoylphenyl)-pyridine-3-carboxamide]"
2,6.79,"COC(=O)C1CCCN(c2ncc(C(F)(F)F)cc2C(=O)Nc2cccc(S(N)(=O)=O)c2)CC1 (centres unmarked) [Example 48, methyl 1-[3-[(3-sulfamoylphenyl)-carbamoyl]-5-(tri-fluoromethyl)-2-pyridyl]azepane-4-carboxylate]"
3,7.82,"NS(=O)(=O)c1cccc(NC(=O)c2cc(C(F)(F)C(F)(F)F)cnc2N2CCCCCC2)c1 [Example 164, 2-(azepan-1-yl)-5-(perfluoroethyl)-N-(3-sulfamoylphenyl)nicotinamide]"
4,8.00,"NS(=O)(=O)c1cccc(NC(=O)c2cc(C(F)(F)F)cnc2N2CCCC3(CC2)CC3)c1 [Example 79, 2-(6-azaspiro[2.6]nonan-6-yl)-N-(3-sulfamoyl-phenyl)-5-(trifluoro-methyl)nicotinamide]"
5,6.95,"C[C@H]1CN(c2ncc(C(F)(F)F)cc2C(=O)Nc2cccc(S(N)(=O)=O)c2)C[C@@H](C(F)(F)F)O1 [Example 148, 2-[(2S,6S)-2-methyl-6-(trifluoromethyl)-morpholin-4-yl]-N-(3-sulfamoylphenyl)-5-(trifluoromethyl) pyridine-3-carboxamide]"
6,7.54,"CC1CCN(c2ncc(C(F)(F)F)cc2C(=O)Nc2cccc(S(N)(=O)=O)c2)CC(C)(C)C1 (centres unmarked) [Example 47, N-(3-sulfamoylphenyl)-5-(trifluoromethyl)-2-(3,3,5-trimethylazepan-1-yl)pyridine-3-carboxamide]"
7,7.82,"C[C@H]1CN(c2ncc(C(F)(F)F)cc2C(=O)Nc2cccc(S(N)(=O)=O)c2)C[C@H](C(F)(F)F)O1 [Example 145, 2-[(2S,6R)-2-methyl-6-(trifluoromethyl)morpholin-4-yl]-N-(3-sulfamoyl-phenyl)-5-(trifluoro-methyl)pyridine-3-carboxamide]"
8,7.92,"NS(=O)(=O)c1cccc(NC(=O)c2cc(C(F)(F)F)cnc2N2CC3CC4CC(C3)CC2C4)c1 [Example 46, N-(3-sulfamoylphenyl)-2-(4-azatricyclo-[4.3.1.13,8]undecan-4-yl)-5-(trifluoromethyl)-nicotinamide]"
9,7.82,"CC1CN(c2ncc(C(F)(F)F)cc2C(=O)Nc2cccc(S(N)(=O)=O)c2)CCC1(F)F (single isomer, unassigned) [Example 124, (S or R)-2-(4,4-difluoro-3-methylpiperidin-1-yl)-N-(3-sulfamoylphenyl)-5-(trifluoromethyl)nicotinamide]"
10,8.14,"Cc1nc(N2CCCC(F)(F)CC2)c(C(=O)Nc2cccc(S(C)(=O)=O)c2)cc1C#N [Example 176, 5-cyano-2-(4,4-difluoroazepan-1-yl)-6-methyl-N-(3-methyl-sulfonylphenyl) pyridine-3-carboxamide]"
11,7.09,"NS(=O)(=O)c1cccc(NC(=O)c2cc(C(F)(F)F)cnc2N2CC3CC2CC3(F)F)c1 (single isomer, unassigned) [Example 137, 2-[(1S,4S or 1R,4R)-5,5-difluoro-2-azabicyclo-[2.2.1]heptan-2-yl]-N-(3-sulfamoylphenyl)-5-(trifluoromethyl)-pyridine-3-carboxamide]"
12,6.38,"CC1CN(c2ncc(C(F)(F)F)cc2C(=O)Nc2cccc(S(N)(=O)=O)c2)CC(C)O1 (single isomer, unassigned) [Example 150, 2-[(2S,6S or 2R,6R)-2,6-dimethylmorpholin-4-yl]-N-(3-sulfamoylphenyl)-5-(trifluoromethyl) pyridine-3-carboxamide]"
13,6.17,"NS(=O)(=O)c1cccc(NC(=O)c2cc(C3COC3)cnc2N2CCCC(F)(F)CC2)c1 [Example 160, 2-(4,4-difluoroazepan-1-yl)-5-(oxetan-3-yl)-N-(3-sulfamoylphenyl)nicotinamide]"
14,6.04,"Cc1cc(Cl)c(C(=O)Nc2cccc(S(N)(=O)=O)c2)c(N2CCCCCC2)n1 [Example 158, 2-(azepan-1-yl)-4-chloro-6-methyl-N-(3-sulfamoylphenyl)-pyridine-3-carboxamide]"
15,7.85,"Cc1cc(C)c(C(=O)Nc2cccc(S(N)(=O)=O)c2)c(N2CCCCCC2)n1 [Example 4, 2-(azepan-1-yl)-4,6-dimethyl-N-(3-sulfamoyl-phenyl)pyridine-3-carboxamide]"
16,5.06,"CS(=O)(=O)c1cccc(NC(=O)c2cc(C(F)(F)F)cnc2N2CCC(c3ccccc3)CC2)c1 [Example 105, N-(3-methylsulfonylphenyl)-2-(4-phenyl-1-piperidyl)-5-(trifluoro-methyl)pyridine-3-carboxamide]"

row,SMILES,pIC50
1,"C[Si](C)(C)c1cnc(N2CCCCCC2)c(C(=O)Nc2cccc(S(N)(=O)=O)c2)c1 [Example 86, 2-(azepan-1-yl)-N-(3-sulfamoylphenyl)-5-(trimethylsilyl)nicotinamide]",7.11
2,"CN1C2CCC1CN(c1ncc(C(F)(F)F)cc1C(=O)Nc1cccc(S(N)(=O)=O)c1)C2 (racemic) [Example 71, 2-[rac-(1S,5R and 1R,5S)-8-methyl-3,8-diazabicyclo[3.2.1]-octan-3-yl]-N-(3-sulfamoylphenyl)-5-(trifluoromethyl) pyridine-3-carboxamide]",5.26

# Reference: patent publication US12344595B2, “2-amino-n-phenyl-nicotinamides as NAV1.8 inhibitors” (Merck Sharp & Dohme LLC, priority 2018, dated 2025)
